From PubChem BioAssay (NCI) come the findings set out here.

Among the test systems are IGROV1 ovarian; HCT-15 colon; KM12 colon; U251 CNS; K-562 leukemia; HL-60(TB) leukemia; HOP-92 NSCLC; COLO 205 colon; A549 NSCLC; SK-MEL-5 melanoma.
Holding throughout (assay): NCI tumour cell line growth inhibition, 48 h

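Step 1: Grow cells in 96-well plates. Step 2: Expose to compound for 48 hours at 5 concentrations. Step 3: Interpolate endpoints linearly; if unreached, use highest concentration. The concentration for 50% growth inhibition is given as GI50. TGI is the concentration that stops growth completely.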

Regarding `O=c1cccccc1NCCCCCCCCCNc1cccccc1=O`, the TGI in the experiment on IGROV1 ovarian is greater than 100 µM; in the experiment with HCT-15 colon it was 39.9 µM; in the experiment on KM12 colon, 33.3 µM; in the experiment on U251 CNS, 30 µM; with K-562 leukemia, 26.9 µM; with HL-60(TB) leukemia, 24.5 µM. Moreover, the values for the TGI in the experiment with HOP-92 NSCLC, in the experiment on COLO 205 colon and in the experiment with A549 NSCLC were 41.6 µM, 26.2 µM and greater than 100 µM, respectively.
In the case of `CC(=O)OC1C2(CC3N4C(=O)C5(CO)SSC4(CC31O)C(=O)N5C)OC(C)C(C)(C)C2=O` (configuration not stated), the GI50 was 0.117 µM in the experiment with IGROV1 ovarian; less than 0.01 µM in the experiment on HCT-15 colon; 1.16 µM with KM12 colon; less than 0.01 µM with U251 CNS; less than 0.0288 µM in the experiment on K-562 leukemia; 0.0389 µM with SK-MEL-5 melanoma. In addition, the results for the GI50 in the experiment with HL-60(TB) leukemia, in the experiment with HOP-92 NSCLC and in the experiment on A549 NSCLC were 0.0379 µM, 0.0763 µM and 0.0592 µM, respectively. In addition, the TGI was 0.577 µM in the experiment on IGROV1 ovarian; less than 0.0197 µM in the experiment on HCT-15 colon; 2.6 µM with KM12 colon; 1.91 µM with K-562 leukemia; 0.0947 µM in the experiment on SK-MEL-5 melanoma; 0.214 µM in the experiment with HOP-92 NSCLC. In the experiment with A549 NSCLC, this compound yielded a TGI of 0.231 µM.
Regarding `CCOc1ccc(NC(=O)CC2SC(N)=NC2=O)cc1` (configuration not stated), the TGI in the experiment with IGROV1 ovarian, in the experiment with KM12 colon, in the experiment with U251 CNS, in the experiment on SK-MEL-5 melanoma, in the experiment on HL-60(TB) leukemia and in the experiment on HOP-92 NSCLC was greater than 100 µM in each case. Besides, the TGI with COLO 205 colon and in the experiment with A549 NSCLC was greater than 100 µM in each case.
Turning to `FC(F)(F)c1ccc2nc(Nc3ccc(Cl)c(Cl)c3)c(-c3ccccc3)nc2c1`, the TGI with HCT-15 colon, in the experiment with U251 CNS, in the experiment on HL-60(TB) leukemia, in the experiment with HOP-92 NSCLC, in the experiment with COLO 205 colon and in the experiment on A549 NSCLC was greater than 100 µM in each case.
`COc1ccc2cc3n(c2c1)CCc1cc(OC)c(OC)cc1-3`: the TGI in the experiment on IGROV1 ovarian, with KM12 colon, in the experiment with U251 CNS, with K-562 leukemia, in the experiment with HL-60(TB) leukemia and with HOP-92 NSCLC was greater than 100 µM in each case. Further, the TGI in the experiment on COLO 205 colon and in the experiment on A549 NSCLC was greater than 100 µM in each case.
Turning to `O=C1c2ccccc2C(=O)C1C(c1ccc([N+](=O)[O-])cc1)C1C(=O)c2ccccc2C1=O`, the TGI in the experiment on HCT-15 colon, in the experiment on KM12 colon, in the experiment on U251 CNS, in the experiment with K-562 leukemia, with SK-MEL-5 melanoma and with HL-60(TB) leukemia was greater than 100 µM throughout. The TGI in the experiment on HOP-92 NSCLC, in the experiment with COLO 205 colon and with A549 NSCLC was greater than 100 µM in each case.
As to `COc1ccc(-c2ccc(/C=N/n3c(COc4ccc(Cl)cc4)n[nH]c3=S)o2)c([N+](=O)[O-])c1`, the GI50 in the experiment with HCT-15 colon was 16 µM; in the experiment with KM12 colon it was 8.12 µM; in the experiment with U251 CNS, 15.5 µM; with K-562 leukemia it was 11.6 µM; in the experiment on HL-60(TB) leukemia, 14.8 µM; in the experiment on HOP-92 NSCLC it was 15.1 µM. The GI50 in the experiment with COLO 205 colon was 20.1 µM; in the experiment with A549 NSCLC, 11.6 µM. For the same compound, the TGI in the experiment on HCT-15 colon is 45.8 µM; in the experiment on KM12 colon, 41.3 µM; in the experiment on U251 CNS, 49.7 µM; in the experiment on K-562 leukemia, 53.4 µM; in the experiment on HL-60(TB) leukemia it was 44.3 µM; in the experiment with HOP-92 NSCLC, 43.8 µM. Further, the TGI was 45.2 µM with COLO 205 colon and 44.1 µM in the experiment on A549 NSCLC.
For the compound `O=C(Nc1cc(Cl)c(Cl)cc1Cl)C(=O)C(C(=O)c1ccc(Cl)c(Cl)c1)C1OC(=O)c2ccccc21` (configuration not stated), the TGI in the experiment on HCT-15 colon came to 40.3 µM; with KM12 colon, 33.6 µM; with U251 CNS, 30.9 µM; in the experiment with K-562 leukemia, 63.9 µM; with HL-60(TB) leukemia, 52 µM; in the experiment on HOP-92 NSCLC, 31.4 µM. Further, the TGI in the experiment with COLO 205 colon is 33.8 µM; in the experiment with A549 NSCLC it was greater than 100 µM.
For `S=c1ssc(Sc2ccccn2)c1Cl`, the GI50 was 5.26 µM in the experiment with HCT-15 colon; 15.5 µM in the experiment with KM12 colon; 11 µM with U251 CNS; 3.63 µM in the experiment with K-562 leukemia; 3.74 µM with SK-MEL-5 melanoma; 3.56 µM with HL-60(TB) leukemia. Moreover, the GI50 in the experiment with HOP-92 NSCLC is 12.6 µM; in the experiment on COLO 205 colon, 19.2 µM; in the experiment with A549 NSCLC, 21 µM. Besides, the TGI is 18.1 µM with HCT-15 colon; 28.8 µM with KM12 colon; 22.9 µM with U251 CNS; 14.5 µM in the experiment with K-562 leukemia; 15.3 µM with SK-MEL-5 melanoma; 9.78 µM with HL-60(TB) leukemia. For the same compound, the TGI with HOP-92 NSCLC stood at 26.8 µM; with COLO 205 colon, 38.7 µM; in the experiment on A549 NSCLC, 42.7 µM.
Consider `CC[CH2][Pb]([CH2]CC)([CH2]CC)[NH]S(=O)(=O)c1ccc(C)cc1`, for which the GI50 is 0.0723 µM in the experiment with IGROV1 ovarian; 0.125 µM in the experiment on HCT-15 colon; 0.147 µM in the experiment on KM12 colon; 0.089 µM in the experiment on U251 CNS; 0.0555 µM in the experiment with SK-MEL-5 melanoma; 0.0643 µM with HL-60(TB) leukemia. Besides, the GI50 is 0.036 µM in the experiment with HOP-92 NSCLC, 0.0236 µM in the experiment on COLO 205 colon and 0.0868 µM in the experiment with A549 NSCLC. Further, the TGI with IGROV1 ovarian was 0.19 µM; in the experiment with HCT-15 colon it was 0.312 µM; in the experiment with KM12 colon, 0.312 µM; with U251 CNS, 0.292 µM; in the experiment on SK-MEL-5 melanoma it was 0.142 µM; with HL-60(TB) leukemia it was 0.272 µM. The TGI was 0.161 µM with HOP-92 NSCLC, 0.0528 µM in the experiment with COLO 205 colon and 0.678 µM in the experiment on A549 NSCLC.
On to `Cc1cn2c(/C=N/N/C(N)=N\N)c(-c3ccc(Cl)c([N+](=O)[O-])c3)nc2s1`, for which the GI50 in the experiment with IGROV1 ovarian is 3.55 µM; in the experiment with HCT-15 colon it was 0.968 µM; in the experiment with KM12 colon, 1.02 µM; with U251 CNS, 0.914 µM; in the experiment on K-562 leukemia, 2.17 µM; in the experiment on SK-MEL-5 melanoma it was 4.29 µM. Besides, the results for the GI50 in the experiment on HL-60(TB) leukemia and in the experiment with HOP-92 NSCLC were 25.2 µM and 2.55 µM, respectively. The TGI is 37.8 µM in the experiment with IGROV1 ovarian; 2.04 µM in the experiment with HCT-15 colon; 2.29 µM in the experiment with KM12 colon; 1.63 µM with U251 CNS; greater than 50 µM in the experiment with K-562 leukemia; 16.4 µM in the experiment on SK-MEL-5 melanoma. The TGI with HL-60(TB) leukemia is greater than 50 µM; in the experiment with HOP-92 NSCLC, 13.3 µM.
As for `Cc1c2ccncc2c(C)c2c1[nH]c1ccc(OC(C)(C)C)cc12`, the TGI in the experiment on IGROV1 ovarian was determined as 26.8 µM; in the experiment on U251 CNS, 10.1 µM; with K-562 leukemia, 4.93 µM; in the experiment on SK-MEL-5 melanoma, 4.9 µM; with HL-60(TB) leukemia, 3.83 µM; with HOP-92 NSCLC, 25.1 µM. The TGI in the experiment on COLO 205 colon amounted to 3.12 µM; with A549 NSCLC, 13.1 µM.
`Nc1nc(OCc2ccccc2)nc2[nH]ncc12`: the GI50 is 32.5 µM in the experiment on IGROV1 ovarian; 30.9 µM in the experiment on HCT-15 colon; 16.2 µM in the experiment on KM12 colon; 18.9 µM in the experiment on U251 CNS; 19.7 µM in the experiment with K-562 leukemia; 14.9 µM in the experiment on SK-MEL-5 melanoma. Also, the GI50 in the experiment with HOP-92 NSCLC is greater than 100 µM; with COLO 205 colon, 18.5 µM; in the experiment with A549 NSCLC, 27.7 µM. Moreover, the TGI is greater than 100 µM in the experiment with IGROV1 ovarian; greater than 100 µM in the experiment with HCT-15 colon; 34.5 µM in the experiment on KM12 colon; 42.2 µM in the experiment on U251 CNS; greater than 100 µM with K-562 leukemia; 28.3 µM in the experiment with SK-MEL-5 melanoma. In addition, the TGI in the experiment with HOP-92 NSCLC was greater than 100 µM; with COLO 205 colon it was 40.4 µM; in the experiment on A549 NSCLC, greater than 100 µM.
Regarding `Clc1ccc2nc(Oc3ccccc3)cnc2c1`, the GI50 in the experiment with HCT-15 colon, with KM12 colon, in the experiment with U251 CNS, with K-562 leukemia, in the experiment with SK-MEL-5 melanoma and in the experiment on HL-60(TB) leukemia was greater than 100 µM each time. Besides, the figures for the GI50 in the experiment with HOP-92 NSCLC, in the experiment on COLO 205 colon and with A549 NSCLC were 14 µM, greater than 100 µM and greater than 100 µM, respectively. For the same compound, the TGI in the experiment with HCT-15 colon, with KM12 colon, with U251 CNS, with K-562 leukemia, in the experiment with SK-MEL-5 melanoma and in the experiment with HL-60(TB) leukemia was greater than 100 µM each time. Also, the TGI with HOP-92 NSCLC, with COLO 205 colon and in the experiment with A549 NSCLC was greater than 100 µM throughout.
With `Oc1cc(Cl)ccc1Oc1ccc(Cl)cc1Cl`, the GI50 was 4.73 µM in the experiment on IGROV1 ovarian; 3.31 µM with HCT-15 colon; 3.6 µM in the experiment with KM12 colon; 2.73 µM in the experiment with U251 CNS; 1.75 µM with SK-MEL-5 melanoma; 3.31 µM with HL-60(TB) leukemia. The GI50 with HOP-92 NSCLC was 2.11 µM; with COLO 205 colon it was 3.88 µM; with A549 NSCLC it was 2.6 µM. Besides, the TGI in the experiment with IGROV1 ovarian stood at 17 µM; with HCT-15 colon, 10.9 µM; in the experiment with KM12 colon, 12.7 µM; in the experiment with U251 CNS, 10.1 µM; with SK-MEL-5 melanoma, 3.59 µM; in the experiment on HL-60(TB) leukemia, 8.31 µM. Moreover, the values for the TGI with HOP-92 NSCLC, in the experiment with COLO 205 colon and in the experiment with A549 NSCLC were 5.69 µM, 13.3 µM and 8.12 µM, respectively.
For `O=C(Cc1ccccc1)N/N=C(\C1=Nc2ccc([N+](=O)[O-])cc2NC1O)C(O)c1ccc([N+](=O)[O-])cc1` (configuration not stated), the TGI in the experiment with IGROV1 ovarian, with HCT-15 colon, with U251 CNS, in the experiment with K-562 leukemia, with SK-MEL-5 melanoma and with HL-60(TB) leukemia was greater than 100 µM each time. Further, the TGI in the experiment with HOP-92 NSCLC, with COLO 205 colon and in the experiment on A549 NSCLC was greater than 100 µM each time.
For the compound `C/C=C(/CCCCNCCCC)[Si](C)(C)C`, the TGI was found to be 37 µM in the experiment on IGROV1 ovarian; 30 µM in the experiment on HCT-15 colon; 30.6 µM with KM12 colon; 26.3 µM with U251 CNS; 45 µM in the experiment on K-562 leukemia; 26.6 µM in the experiment on SK-MEL-5 melanoma. Also, the TGI worked out at 20.9 µM with HOP-92 NSCLC, 27.9 µM in the experiment on COLO 205 colon and 30.3 µM with A549 NSCLC.
